Activity calls are given as the source filed them. No rule for the calls is given here.
Each compound was assayed against Nuclear receptor ROR-alpha (Homo sapiens) (UniProt P35398) (assay: RORA-driven reporter inhibition potency – cell-based, dose response (AID 610)).
Chain of Nuclear receptor ROR-alpha (Homo sapiens) (P35398 whole entry, looked up): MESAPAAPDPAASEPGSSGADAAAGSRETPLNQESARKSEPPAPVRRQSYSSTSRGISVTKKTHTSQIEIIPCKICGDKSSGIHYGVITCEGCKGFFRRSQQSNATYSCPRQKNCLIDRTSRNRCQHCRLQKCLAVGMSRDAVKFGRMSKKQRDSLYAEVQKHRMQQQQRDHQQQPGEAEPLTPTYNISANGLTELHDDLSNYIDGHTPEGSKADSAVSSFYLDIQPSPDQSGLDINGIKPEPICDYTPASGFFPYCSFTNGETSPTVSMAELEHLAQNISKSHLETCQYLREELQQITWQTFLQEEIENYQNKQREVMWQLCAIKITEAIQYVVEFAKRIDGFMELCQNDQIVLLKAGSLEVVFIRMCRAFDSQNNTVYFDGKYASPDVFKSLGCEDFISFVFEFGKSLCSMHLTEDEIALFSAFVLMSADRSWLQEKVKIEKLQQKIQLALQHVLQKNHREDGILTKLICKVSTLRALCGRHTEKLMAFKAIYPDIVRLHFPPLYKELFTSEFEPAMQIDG

IC50	Structure (SMILES)
8350 nM	O=C(/C=C\Nc1ccccn1)c1ccc(Cl)cc1
> 99000 nM (inactive)	O=C(O)CCCCCN1C(=O)CSC1=S
2090 nM	Cc1ccc(C(=O)/C=C/Nc2ccccn2)cc1
inactive	CC(=O)CC1OC(=O)C(Br)=C1NCc1ccccc1 (centres undefined)
4560 nM	COc1cccc2sc(Nc3nc(-c4ccccn4)cs3)nc12
1520 nM	O=C(/C=C\Nc1ccc2c(c1)OCO2)c1ccccn1
2480 nM	O=S(=O)(c1ccc2c(c1)C(=NO)c1cc(S(=O)(=O)N3CCCCC3)ccc1-2)N1CCCCC1
6230 nM	COC(=O)C1=C(CN2CCCc3ccccc32)NC(=O)NC1c1ccc(F)cc1 (centres undefined)
670 nM	COc1cc(/C=N/O)ccc1OCc1ccc(C(=O)O)cc1

From PubChem BioAssay AID610 (The Scripps Research Institute Molecular Screening Center, 2007)
